Structures are written as SMILES.

For this test, the target named is T1, C5AR1 (Homo sapiens, UniProt P21730).
T1 construct: host or cells: CHO-K1
T1 sequence (P21730 1-350): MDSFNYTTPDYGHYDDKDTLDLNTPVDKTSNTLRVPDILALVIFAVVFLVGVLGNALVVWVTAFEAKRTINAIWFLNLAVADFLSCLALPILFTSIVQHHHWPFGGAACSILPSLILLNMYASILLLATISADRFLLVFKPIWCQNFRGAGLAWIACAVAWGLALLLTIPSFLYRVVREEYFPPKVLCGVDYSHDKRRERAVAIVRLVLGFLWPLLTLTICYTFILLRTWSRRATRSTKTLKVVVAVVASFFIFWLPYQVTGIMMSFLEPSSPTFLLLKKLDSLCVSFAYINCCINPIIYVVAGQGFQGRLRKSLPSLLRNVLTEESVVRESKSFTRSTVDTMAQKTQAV
The test is described as follows: In vitro assay: antagonism of C5a-induced beta-arrestin recruitment (PathHunter) in CHO-K1 C5AR1 beta-arrestin cell line. The test is classed as cell-based. The conditions noted are these: antagonistic activity, 1-10 nM C5a agonist, geometric mean where several measurements, read-out: C5aR IC50. The method, then:
5 μl Antagonist at 6-fold end concentration or DMSO control is added to assay medium and subsequently 5 μl 1-10 nM C5a agonist at 6 fold end concentration. Cells are centrifuged for 1 min at 1000 rpm and incubated for 1.5 hour in at 37° C. Plates are equilibrated at room temperature for several minutes before adding 12 μl/well Detection Reagent (PathHunter Detection Kit, DiscoverX, Cat #93-0001). Plates are centrifuged for 1 min at 1000 rpm and incubated for 45 minutes at RT before being measured on a Fluostar Optima, BMG Labtech. IC50 values are calculated from a serial dilution range of antagonist using inhouse software and given in nmol/l.
The calculated IC50 values may fluctuate depending on the daily cellular assay performance. Fluctuations of this kind are known to those skilled in the art. Average IC50 values from several measurements are given as geometric mean values.
A general note: Recruitment of arrestin is a read-out of receptor activation apart from second messengers.

For orientation: IC50 means the concentration at which inhibition is half-maximal. With `Cc1cccc(C)c1N1CCC(N2Cc3cn(C)nc3N(Cc3ccccc3C(F)(F)F)C2=O)C1` (single isomer, unassigned) [Example 57], the IC50 is 19 nM.
The result for `Cc1cccc(C)c1N1CCC(N2Cc3cn(C)nc3N(Cc3ccccc3C(F)(F)F)C2=O)C1` (single isomer, unassigned) [Example 58] reads 238 nM; that for `Cc1cccc(F)c1N1CCC(N2Cc3cn(CC(C)F)nc3N(Cc3ccccc3C(F)(F)F)C2=O)CC1` (single isomer, unassigned) [Example 185], 10 nM.
In the case of `Cc1cccc(F)c1N1CCC(N2Cc3cn(CC(C)F)nc3N(Cc3ccccc3C(F)(F)F)C2=O)CC1` (single isomer, unassigned) [Example 186], the IC50 was 8 nM.
With `Cc1cccc(F)c1N1CCC(N2Cc3cn(C(C)C(F)F)nc3N(Cc3ccccc3C(F)(F)F)C2=O)CC1` (single isomer, unassigned) [Example 187], the IC50 amounted to 13 nM.
As for `Cc1cccc(F)c1N1CCC(N2Cc3cn(C(C)C(F)F)nc3N(Cc3ccccc3C(F)(F)F)C2=O)CC1` (single isomer, unassigned) [Example 188], the IC50 amounted to 10 nM.
Next, `Cc1cccc(F)c1N1CCC(N2Cc3cn(CC4CC4(F)F)nc3N(Cc3ccccc3C(F)(F)F)C2=O)CC1` (single isomer, unassigned) [Example 189]: 10 nM; `Cc1cccc(F)c1N1CCC(N2Cc3cn(CC4CC4(F)F)nc3N(Cc3ccccc3C(F)(F)F)C2=O)CC1` (single isomer, unassigned) [Example 190]: 11 nM; `Cc1cccc(F)c1N1CCC(N2C(=O)N(Cc3ccccc3C(F)(F)F)c3cn(C)nc3C2C)CC1` (single isomer, unassigned) [Example 202]: 919 nM.
For the molecule `Cc1cccc(F)c1N1CCC(N2C(=O)N(Cc3ccccc3C(F)(F)F)c3cn(C)nc3C2C)CC1` (single isomer, unassigned) [Example 203], the IC50 was 74 nM.
For the molecule `Cc1cccc(F)c1N1CCC(N2C(=O)N(Cc3ccccc3C(F)(F)F)c3nn(C)cc3C2C)CC1` (single isomer, unassigned) [Example 220], the IC50 amounted to 8 nM.
The result for `Cc1cccc(F)c1N1CCC(N2C(=O)N(Cc3ccccc3C(F)(F)F)c3nn(C)cc3C2C)CC1` (single isomer, unassigned) [Example 221] reads 77 nM; that for `Cc1cccc(F)c1N1CCCC(N2Cc3cn(C)nc3N(Cc3ccccc3C(F)(F)F)C2=O)CC1` (single isomer, unassigned) [Example 225], 34 nM.
The result for `Cc1cccc(F)c1N1CCCC(N2Cc3cn(C)nc3N(Cc3ccccc3C(F)(F)F)C2=O)CC1` (single isomer, unassigned) [Example 226] reads 24 nM; that for `Cc1cccc(F)c1N1CCC(C)(N2Cc3cn(C)nc3N(Cc3ccccc3C(F)(F)F)C2=O)C1` (single isomer, unassigned) [Example 234], 109 nM; that for `Cc1cccc(F)c1N1CCC(C)(N2Cc3cn(C)nc3N(Cc3ccccc3C(F)(F)F)C2=O)C1` (single isomer, unassigned) [Example 235], 169 nM.
Take `Cc1cccc(F)c1N1CCCC(N2Cc3cn(C)nc3N(Cc3ccccc3C(F)(F)F)C2=O)C1` (single isomer, unassigned) [Example 241]: the half-maximal inhibitory concentration (IC50) is 112 nM.
In the case of `Cc1cccc(F)c1N1CCCC(N2Cc3cn(C)nc3N(Cc3ccccc3C(F)(F)F)C2=O)C1` (single isomer, unassigned) [Example 242], the IC50 is 628 nM.
In the case of `Cc1cccc(F)c1N1CCC(N2Cc3cn(C)nc3N(C(C)c3ccccc3C(F)(F)F)C2=O)CC1` (single isomer, unassigned) [Example 246], the IC50 was found to be 21 nM.
Take `Cc1cccc(F)c1N1CCC(N2Cc3cn(C)nc3N(C(C)c3ccccc3C(F)(F)F)C2=O)CC1` (single isomer, unassigned) [Example 247]: the IC50 was found to be 21 nM.
`Cc1cccc(F)c1N1CCC(N2C(=O)N(Cc3ccccc3C(F)(F)F)c3cn(CC(C)(F)F)nc3C2C)CC1` (single isomer, unassigned) [Example 253]: the IC50 was 16 nM.
The result for `Cc1cccc(F)c1N1CCC(N2C(=O)N(Cc3ccccc3C(F)(F)F)c3cn(CC(C)(F)F)nc3C2C)CC1` (single isomer, unassigned) [Example 254] reads 192 nM; that for `Cc1cccc(F)c1N1CCC(N2C(=O)N(Cc3ccccc3C(F)(F)F)c3cnn(CC(C)(F)F)c3C2C)CC1` (single isomer, unassigned) [Example 255], 87 nM; that for `Cc1cccc(F)c1N1CCC(N2C(=O)N(Cc3ccccc3C(F)(F)F)c3cnn(CC(C)(F)F)c3C2C)CC1` (single isomer, unassigned) [Example 256], 570 nM.
Consider `Cc1cccc(F)c1N1CCC(N2Cc3nn(C)cc3N(C(C)c3ccccc3C(F)(F)F)C2=O)CC1` (single isomer, unassigned) [Example 261], for which the IC50 turned out to be 580 nM.
For the molecule `Cc1cccc(F)c1N1CCC(N2Cc3nn(C)cc3N(C(C)c3ccccc3C(F)(F)F)C2=O)CC1` (single isomer, unassigned) [Example 262], the concentration for half-maximal inhibition (IC50) came out at 472 nM.
For the molecule `Cc1cccc(F)c1N1CCC(N2C(=O)N(Cc3ccccc3C(F)(F)F)c3c[nH]nc3C2C)CC1` (single isomer, unassigned) [Example 263], the IC50 was 21 nM.
Take `Cc1cccc(F)c1N1CCC(N2C(=O)N(Cc3ccccc3C(F)(F)F)c3cn(C4CC4)nc3C2C)CC1` (single isomer, unassigned) [Example 265]: the IC50 turned out to be 12 nM.
With `Cc1cccc(F)c1N1CCC(N2C(=O)N(Cc3ccccc3C(F)(F)F)c3cn(C4CC4)nc3C2C)CC1` (single isomer, unassigned) [Example 266], the IC50 amounted to 356 nM.
Consider `COc1nccc(C)c1N1CCC(N2C(=O)N(Cc3ccccc3C3CC3)c3c[nH]nc3C2C)CC1` (single isomer, unassigned) [Example 274], for which the IC50 worked out at 37 nM.
`Cc1cccc(F)c1N1CCC(N2C(=O)N(Cc3ccccc3C3CC3)c3c[nH]nc3C2C)CC1` (single isomer, unassigned) [Example 275]: the IC50 amounted to 20 nM.
The result for `Cc1cccc(F)c1N1CCC(N2C(=O)N(Cc3ccccc3C3CC3)c3cn(CC(C)(F)F)nc3C2C)CC1` (single isomer, unassigned) [Example 276] reads 491 nM; that for `Cc1cccc(F)c1N1CCC(N2C(=O)N(Cc3ccccc3C3CC3)c3cn(CC(C)(F)F)nc3C2C)CC1` (single isomer, unassigned) [Example 277], 56 nM.
Next, `Cc1cccc(F)c1N1CCC(N2C(=O)N(Cc3ccccc3C3CC3)c3cn(C4CC4)nc3C2C)CC1` (single isomer, unassigned) [Example 278]: 492 nM; `Cc1cccc(F)c1N1CCC(N2C(=O)N(Cc3ccccc3C3CC3)c3cn(C4CC4)nc3C2C)CC1` (single isomer, unassigned) [Example 279]: 28 nM.
The result for `COc1nccc(C)c1N1CCC(N2Cc3cn(C)nc3N(C(C)c3ccccc3C(F)(F)F)C2=O)CC1` (single isomer, unassigned) [Example 286] reads 33 nM.
Regarding `COc1nccc(C)c1N1CCC(N2Cc3cn(C)nc3N(C(C)c3ccccc3C(F)(F)F)C2=O)CC1` (single isomer, unassigned) [Example 287], the IC50 came to 37 nM.
For `CC(c1ccccc1C(F)(F)F)N1C(=O)N(C2CCN(c3c(F)cccc3C#N)CC2)Cc2cn(C)nc21` (single isomer, unassigned) [Example 288], the IC50 was 75 nM.
The result for `CC(c1ccccc1C(F)(F)F)N1C(=O)N(C2CCN(c3c(F)cccc3C#N)CC2)Cc2cn(C)nc21` (single isomer, unassigned) [Example 289] reads 55 nM; that for `CC(c1ccccc1C(F)(F)F)N1C(=O)N(C2CCN(c3c(F)cccc3F)CC2)Cc2cn(C)nc21` (single isomer, unassigned) [Example 290], 351 nM; that for `CC(c1ccccc1C(F)(F)F)N1C(=O)N(C2CCN(c3c(F)cccc3F)CC2)Cc2cn(C)nc21` (single isomer, unassigned) [Example 291], 116 nM.
As for `COc1nccc(C)c1N1CCC(N2C(=O)N(Cc3ccccc3C3CC3)c3cn(C4CC4)nc3C2C)CC1` (single isomer, unassigned) [Example 292], the IC50 came to 515 nM.
The result for `COc1nccc(C)c1N1CCC(N2C(=O)N(Cc3ccccc3C3CC3)c3cn(C4CC4)nc3C2C)CC1` (single isomer, unassigned) [Example 293] reads 20 nM; that for `COc1nccc(C)c1N1CCC(N2C(=O)N(Cc3ccccc3C(F)(F)F)c3c[nH]nc3C2C)CC1` (single isomer, unassigned) [Example 295], 25 nM.
Turning to `COc1nccc(C)c1N1CCC(N2C(=O)N(Cc3ccccc3C(F)(F)F)c3cn(C4CC4)nc3C2C)CC1` (single isomer, unassigned) [Example 296], the IC50 is 15 nM.
Take `COc1nccc(C)c1N1CCC(N2C(=O)N(Cc3ccccc3C(F)(F)F)c3cn(C4CC4)nc3C2C)CC1` (single isomer, unassigned) [Example 297]: the concentration for half-maximal inhibition (IC50) was 326 nM.
